Data on five compounds can be found in patent US5256533A, “As a probe of serotonin uptake harmaline” (Board of Regents, The University of Texas System, priority 1990, dated 1993).

Entries after “also recorded” stand apart in the source; their conditions may differ.

For experiment [1], the target named is [^3 H]Serotonin binding sites of brain tissue. As to the kind of experiment: Inhibition of [3H]serotonin binding by brain homogenates. To be noted: concentration causing 50% inhibition of isotope binding. As to the method: TABLE 1 illustrates the general inhibitory effects of beta carbolines on neurotransmitter binding by brain tissue. Samples of brain tissue rich in the respective neurotransmitter binding sites were obtained, homogenized, washed and incubated with a series of beta carboline concentrations. After subsequent additions of tritiated neurotransmitters, the extent of beta carboline inhibition of labeled neurotransmitter binding was measured. As shown, a variety of beta carbolines were effective antagonists of several neurotransmitters. […] These beta carbolines may be used as vital stains for the respective neurotransmitter systems, accumulating in living tissue.

Experiment [2] addresses [^3 H]GABA binding sites of brain tissue. As to the kind of experiment: Inhibition of [3H]GABA binding by brain homogenates. To be noted: concentration causing 50% inhibition of isotope binding. As to the method: (§1) Samples of brain tissue rich in the respective neurotransmitter binding sites were obtained, homogenized, washed and incubated with a series of beta carboline concentrations. After subsequent additions of tritiated neurotransmitters, the extent of beta carboline inhibition of labeled neurotransmitter binding was measured.

The target in experiment [3] is [^3 h]Noradrenaline binding sites of brain tissue. As to the kind of experiment: Inhibition of [3H]noradrenaline binding by brain homogenates. To be noted: concentration causing 50% inhibition of isotope binding. As to the method: as §1
The next experiment concerns leukocytes and platelets. In words: Harmaline accumulation in blood cells by spectrophotofluorometry. The class given is cell-based, human. As to the method: (§2) For this experiment, the beta carboline, harmaline was used. […] Prior to the use of a beta carboline to analyze blood tissues, blood was collected, then leukocytes and platelets were gradient separated utilizing a hypaque/centrifugation technique. The leukocytes were then re-suspended in culture media (phosphate buffered saline (PBS) with bovine serum albumin) at a concentration of […]. The cells and platelets may then be incubated with a solution containing antagonist(s) or blockers of undesired neurotransmitter interactions. With harmaline, there is some amount of cross reactivity with the alpha-2 (noradrenaline) receptor. […] The labelled cells were then analyzed using both spectrophotofluorometry and ultraviolet flow cytometry. With the flow cytometry-analyzed tissue an experiment to detect the presence of imipramine, the serotonin uptake system antagonist, was implemented.
In spectrophotofluorometry (SPF), a volume of labeled cells in suspension are analyzed together, the sum of their emitted fluorescence recorded using a spectrophotofluorometer and compared with other samples with the same concentration of cells. […] This method assumes that the fluorescence emitted from a sum of collected sources (cells) increases proportionally with an individual source. […]

The subject of experiment [4] is lymphocytes and platelets. In words: Harmaline accumulation in blood cells by ultraviolet flow cytometry. Type of experiment: cell-based, human. As to the method: as §2, with “receptor. As the blood cells and platelets both have alpha-2 receptors, the noradrenaline antagonist, yohimbine was chosen to block undesired reactivity with these sites. Cells were incubated for 10 minutes with a 100 μM solution of yohimbine. The cells were then divided into numerous samples which were each exposed to increasing concentrations of harmaline (1 μM to 100 μM concentrations were used) for a period of five minutes each.” for “receptor.”
With flow cytometry, a sample of cells was treated prior to analysis, as above. Fluorescence of individual cells was then analyzed sequentially as they passed through detection beams of light in a micro-stream of fluid. Using this method, literally emissions of cells, or "events" were analyzed and statistically computed to elicit accuracy of analysis. In addition, as individual cells are analyzed, more subtle changes in fluorescence ligand-cell association can be appreciated. There are some procedures for measuring the actual number of binding sites on cells which combine flow cytometry with steady-state fluorescence (Steinkamp and Kramer 1979) or radiometric assays (Titus et al. 1981), while others employ fluorescent calibration standards (Sklar et al. 1984). […]

Another experiment relates to rat retina. As to the kind of experiment: Fluorescent harmaline accumulation in perfused living retina. Type of experiment: cell-based. As to the method: One test of the serotonin site ligand, harmaline, is in the neuronal tissue of the rat retina. This tissue is known to contain intracellular serotonin. The serotonergic neurotransmitter system in rat retinal neurons has been previously studied and sites of serotonin accumulation have been identified (Redburn and Churchill 1987) primarily using radiolabelled ^3 H-serotonin (see FIG. 2). According to one test of the invention, it was determined that harmaline accumulated in living rat retina tissue in a specific manner. […] The harmaline present in the OPL begins to dissipate when the stained retina is exposed to sodium-free buffer (see FIG. 3, frame B). Exposure of the stained retina to darkness stimulates harmaline release from the OPL (see FIG. 3, frame C). Further, quantitative evaluation of harmaline accumulation was achieved by measuring the amount of fluorescence given off by harmaline when excited with UV-radiation. A light meter was used to generate data. The light meter gathered light emissions from the eyepiece of an ultraviolet microscope. Harmaline's excitation spectrum is 350-390 nm with emission spectra greatest at 480 and 560 nm in the visible range producing a blue green light. Tissue was placed under a microscope in a sealed perfusion chamber through which oxygenated (95% O2 -5% CO2) buffer flowed. Upon administration of harmaline, data from the light meter was standardized to units of harmaline concentration (using standard curves).

In experiment [5] the test system is ^3 H-serotonin uptake by retina. As to the kind of experiment: Inhibition of 3H-serotonin uptake in retina (FIG. 5). Type of experiment: cell-based.
The test system of the next experiment is opiate sites. To be noted: Muller et al. 1981; cited from earlier work.
The test system of experiment [6] is muscarinic cholinergic sites. To be noted: Muller et al. 1981; cited from earlier work.
Another experiment has as its system benzodiazepine receptor. To be noted: Muller et al. 1981; cited from earlier work.
In a further experiment the test system is monoamine oxidase A. To be noted: Fuller et al. 1985; cited from earlier work.
In a further experiment the test system is serotonin receptors. To be noted: Glennon 1981; cited from earlier work.
Experiment [7] concerns the target [^3 H]Choline binding sites of brain tissue. As to the kind of experiment: Inhibition of [3H]choline binding by brain homogenates. To be noted: concentration causing 50% inhibition of isotope binding. As to the method: as §1
In experiment [8] the target is [^14 C]Dopamine binding sites of brain tissue. In words: Inhibition of [14C]dopamine binding by brain homogenates. To be noted: read-out: IC50, inhibition binding, concentration causing 50% inhibition of isotope binding. As to the method:
TABLE 1 illustrates the general inhibitory effects of beta carbolines on neurotransmitter binding by brain tissue. Samples of brain tissue rich in the respective neurotransmitter binding sites were obtained, homogenized, washed and incubated with a series of beta carboline concentrations. […] As shown, a variety of beta carbolines were effective antagonists of several neurotransmitters. […] These beta carbolines may be used as vital stains for the respective neurotransmitter systems, accumulating in living tissue.

Experiment [9] has as its system noradrenergic system of blood cells and platelets. As to the kind of experiment: THN accumulation in blood cells and platelets, noradrenaline system. The class given is cell-based. To be noted: imipramine 100 μM and serotonin 100 μM pretreatment; extrapolated from literature. As to the method: The analysis of a noradrenaline system using the beta carboline tetrahydronorharman (THN) could be tested using the method described with blood cells and platelets. Cells and platelets would be collected, then pre-treated with solutions to block sites of the serotonin system in order to limit interactions to that of the noradrenergic system. Cells would be first incubated for 10 minutes with the serotonin uptake blocker, imipramine at 100 μM, following which serotonin itself was added to make a concentration of 100 μM for an additional 5 minute incubation. The cells and platelets thusly prepared would then be incubated with the beta carboline, THN, at concentrations of 10 nM to 100 μM. […] These values were obtained via extrapolation from pertinent literature on THN and noradrenaline.

[10] abbreviates: perfusion concentration 5 μM harmaline.

As for “7-methoxy-3,4-dihydro-beta-carboline [harmaline]”, the IC50 was 43 µM in [1], 238 µM in [2] and 43 µM in [3]. Also, the “Nature of accumulation in human lymphocytes” value in the experiment on leukocytes and platelets (fluorescence measurement) was “saturable, concentration-dependant phenomena”. Further, the concentration giving a half-maximal response (EC50) – broadly, the concentration at which the effect is half-maximal – amounted to 30 µM with leukocytes and platelets (yohimbine 100 μM pretreatment, harmaline 1-100 μM, 5 minutes, read-out: EC50 of fluorescent accumulation (spectrophotofluorometry)); 25 µM in [4] (yohimbine 100 μM pretreatment, harmaline 1-100 μM, 5 minutes, read-out: EC50 of fluorescent accumulation (flow cytometry)). Besides, the “Concentration at which accumulation saturates” value in experiment [4] (at 5 minutes) lay in the range of 75 to 100 µM. In addition, in the experiment on rat retina, the “Accumulation inside versus outside the cell” value is given as “three times greater inside than outside the cell”. Besides, in the experiment on rat retina, the “Dependence of accumulation in retina” value is recorded as “sodium dependent, energy dependent”. Besides, the “Harmaline concentration in outer retina relative to control (non-viable) tissue” value with rat retina (setting [10]) is given as 3 fold. In the experiment with rat retina (setting [10]), the “Harmaline concentration in outer retina relative to surrounding perfusate” value is on record as 3 fold. Further, in experiment [5], the “Inhibition of ^3 H-serotonin uptake by retina” value is “competitively inhibited”. In the experiment on opiate sites, the “IC50 for opiate sites relative to other sites” value was “about four times lower than for serotonin or dopamine sites; also recorded: about four times higher than found for benzodiazepine antagonism”. For the same compound, the “IC50 for muscarinic cholinergic sites relative to other sites” value in experiment [6] is on record as “about four times lower than for serotonin or dopamine sites; also recorded: about four times higher than found for benzodiazepine antagonism”. Also, in the experiment on benzodiazepine receptor, the “Potency at benzodiazepine binding relative to serotonin or dopamine” value is listed as “far more potent antagonist of benzodiazepine binding than it is for serotonin or dopamine”. Also, the “Inhibition of monoamine oxidase A in vivo” value in the experiment on monoamine oxidase A was “potently inhibit”. For the same compound, the “Binding affinity for serotonin receptors” value in the experiment with serotonin receptors was “high binding affinities”.

With `COc1ccc2c(c1)[nH]c1c(C)nccc12` [7-methoxy-1-methyl-beta-carboline], the IC50 in [1] was 27 µM; in [7], 200 µM; in [3] it was 700 µM.

For the compound `CN(C)CCCN1c2ccccc2CCc2ccccc21` [imipramine], the “Effect on measured harmaline accumulation” value in [4] (brief incubation with imipramine 25 μM) is reported as “the measured harmaline accumulation was less”. Also, the “Inhibition of ^3 H-serotonin uptake by retina” value in [5] was “antagonized”.

On to `c1ccc2c(c1)[nH]c1cnccc12` [beta-carboline], for which the IC50 came out at 9.1 µM in [1]; 75 µM in experiment [7]; 335 µM in experiment [2]; 80 µM in experiment [3]; 100 µM in [8].

Turning to `c1ccc2c3c([nH]c2c1)CNCC3` [1,2,3,4-tetrahydro-beta-carboline], the IC50 in [1] amounted to 6 µM; in experiment [7], 9000 µM; in experiment [2], 153 µM; in experiment [3] it was 13 µM; in experiment [8], 220 µM. For the same compound, in [9], the “THN concentration at which fluorescent accumulation saturates” value is “approximately 10 μM”.
